Measurements published in patent publication US11414379B2, “SPAK kinase inhibitors as neuroprotective agents” (United States Government as represented by the Department …, priority 2018, dated 2022).

Experiments:
[1] = biological target: T1, GST-[T233E]SPAK kinase (Homo sapiens, UniProt Q9UEW8, T231E); assay: SPAK kinase assay employing CATCHtide; format: biochemical
T1 construct: made in house; host or cells: E. coli
Procedure: SPAK kinase assays employing CATCHtide (cation chloride co-transporter peptide substrate). Peptide kinase assays, performed in triplicate, were set up in a total volume of 50 μl containing 0.5 μg GST-[T233E]SPAK kinase (˜5 nM at ˜10% purity) in 50 mM Tris/HCl, pH 7.5, 0.1 mM EGTA, 10 mM MgCl2, 300 μM CATCHtide ([…]; SEQ ID NO:1), […] [γ-32P]ATP (˜500 cpm/pmol) and the indicated concentrations of inhibitor dissolved in DMSO. After incubation for 30 min at 30° C., reactions were terminated by spotting 40 μl of the reaction mix onto P81 phosphocellulose paper and immersion in 50 mM phosphoric acid. The papers were washed extensively and the incorporation of [γ-^32P]ATP into CATCHtide was quantified by Cerenkov counting. IC^50 values were calculated with GraphPad Prism using non-linear regression analysis.
Referring to FIG. 7A, the activation of SPAK kinase by MO25α is shown. SPAK was assayed in the absence or presence of five-fold molar excess of wild-type MO25α.
Referring to FIG. 7B, kinetic data was determined for ZT-1a in the absence or presence of five-fold molar excess of wild-type MO25α. Data points are the average of three determinations, and the error bars are +/−SEM.

[2] = tested on: pKCC3; assay: Phosphorylation in ischemic mouse brains, immunoblot; format: in vivo
Procedure: (§1) The membranes were incubated for 30 min with TBST (Tris-buffered saline, 0.05% Tween-20) containing 5% (w/v) skim milk. The blots were then washed six times with TBST and incubated for 1 hour at room temperature with secondary HRP-conjugated antibodies diluted 5000-fold in 5% (w/v) skim milk in TBST. After repeating the washing steps, signals were detected with enhanced chemiluminescence reagent. Immunoblots were developed using a film automatic processor (SRX-101; Konica Minolta Medical) and films were scanned at 600 dpi (PowerLook 1000; UMAX). Figures were generated using Photoshop/Illustrator (Adobe). The densities of bands were measured with ImageJ. For phospho-antibody immunoprecipitation, KCC isoforms were immunoprecipitated from indicated cell extracts. 2 mg of the indicated clarified cell extract were mixed with 15 μg of the indicated phospho-specific KCC antibody conjugated to 15 μl of protein-G-Sepharose, in the added presence of […] of the dephosphorylated form of the phosphopeptide antigen, and incubated 2 hours at 4° C. with gentle shaking. Immunoprecipitates were washed three times with 1 mL of lysis buffer containing 0.15 M NaCl and twice with 1 ml of buffer A. Bound proteins were eluted with 1×LDS sample buffer.
(§2) Brain homogenates were prepared as previously described (Bhuiyan et al. (2017) Journal of cerebral blood flow and metabolism: official journal of the International Society of Cerebral Blood Flow and Metabolism 37: 2780-2794). Mice were anesthetized with 5% isoflurane vaporized in N20 and 02 (3:2), then decapitated. […] The pellet was re-suspended in the homogenization buffer. Protein content in both membrane and cytosolic fractions was determined by the standard bicinchoninic acid method.
(§3) Referring to FIG. 14A, representative immunoblots (IB) of phospho-SPAK/OSR1 (pSPAK/pOSR1), phospho-KCC3 and phospho-NKCC1 (pNKCC1) in mouse brains studied 24 hrs post-reperfusion after ischemic stroke are shown. Membrane protein fractions were prepared from contralateral (CL) and ipsilateral (IL) cerebral hemispheres. Vehicle (Veh, DMSO) or ZT-1a (5 mg/kg) was administered as described in FIG. 11A, FIG. 11B, and FIG. 13. Na^+-K^+ ATPase α-subunit and GAPDH served, respectively, as loading controls for membrane and cytosol fractions.
(§4) Referring to FIG. 14B, densitometry analyses of immunoblots (similar to those in panel A) of pSPAK/pOSR1, pNKCC1, tSPAK/tOSR1, and tNKCC1 in mouse brains studied 24 hrs reperfusion after tMCAO are shown. Data are means±SEM, n=5 per group (male 3, female 2). *p<0.05.

[3] = tested on: pSPAK/pOSR1 and pNKCC1; assay: as above; format: in vivo
Procedure: as §1, §2, §3, §4

[4] = tested on: mouse model of ischemic stroke; assay: Ex vivo MRI (T2WI, DTI) 7 days post-stroke; format: in vivo; details: p>0.05
Procedure: For ex-vivo MRI, brains were maintained within the skull to avoid anatomical deformation. After overnight post-fixation in 4% PFA, heads were stored in PBS solution at 4° C. […] was performed at 500 MHz using a Bruker AV3HD 11.7 T/89 mm vertical bore small animal MRI scanner, equipped with a 25-mm quadrature RF coil and Paravision 6.0 (Bruker Biospin, Billerica, Mass.).
In a blinded manner, region of interests (ROIs) were manually drawn for the ipsilateral (IL) and contralateral (CL) cortex, striatum, corpus callosum (CC), and external capsule (EC). Values for the fractional anisotropy (FA), […] diffusion coefficient (ADC), and diffusivity were calculated for the entire volume of each ROI.
Referring to FIG. 15A, representative T2WI images and quantitative analyses of lesion volume and atrophy (shrinkage) of ex vivo brains from vehicle (Veh) control and ZT-1a-treated mice at 7 days post-MCAO are shown. […]
Referring to FIG. 15B, representative images of directionally encoded color (DEC) and fractional anisotropy (FA) maps are shown. […] Bar graphs display quantitation of mean values of FA, mean diffusivity (MD), axial diffusivity (AD) and radial diffusivity (RD) of white matter tissues (CC or EC) of ex vivo brain from vehicle control (Veh) and ZT-1a-treated mice at 7 days post-MCAO. […]

[5] = tested on: humans; details: in vivo, 25 mg/kg; cited from earlier work
[6] = compared to vehicle-control mice
[7] = ipsilateral cortex membrane fractions, 24 hrs reperfusion, 5 mg/kg

SMILES	change of IC50 values by addition of MO25α [1]	change of IC50 values with increasing ATP concentrations ([1]; SPAK activity at different ATP concentrations)	IC50 ([1]; absence of wild-type MO25α) [µM]	IC50 ([1]; presence of five-fold molar excess of wild-type MO25α) [µM]	reduction of ischemia-induced elevations of pKCC3 [2, 6] [%]	effect on ischemia-induced increases of pKCC3 [2, 7]	reduction of ischemia-induced elevations of pSPAK and pNKCC1 [3, 6]	effect on ischemia-induced increases of pSPAK/pOSR1 and pNKCC1 [3, 7]	EC tract FA values in the IL hemisphere [4]	adverse effects in humans [5]
Cc1cc(C(C#N)c2ccc(Cl)cc2)c(Cl)cc1NC(=O)c1cc(Cl)ccc1O (stereo not shown) [ZT-1a, 5-chloro-N-(5-chloro-4-((4-chlorophenyl)(cyano)methyl)-2-methylphenyl)-2-hydroxy-benzamide]	not significantly altered	unchanged	40.5	41.3	30	prevented ischemia-induced increases	55-65%	prevented ischemia-induced increases	did not change	–
Cc1cc(C(C#N)c2ccc(Cl)cc2)c(Cl)cc1NC(=O)c1cc(I)cc(I)c1O (stereo not shown) [Closantel]	–	–	–	–	–	–	–	–	–	weakness, visual impairment and blindness
